Reference: the NIST ThermoML archive (doi:10.1016/j.jct.2015.11.009)

Columns and labels:
[1] = xn = mol fraction of the nth substance listed; settings: 100 kPa, Liquid; for speed of sound: Frequency=3 MHz, Sing-around technique in a fixed-path interferometer; for mass density: Vibrating tube method
[2] = refractive index (Na D-line) (dimensionless); xn = mol fraction of the nth substance listed; settings: 100 kPa, Liquid, Standard Abbe refractometry

O=C1CCCN1 [2-pyrrolidinone] + CCCCn1cc[n+](C)c1.F[B-](F)(F)F
Settings | mass density, [1] [kg/m3] | refractive index, [2] | speed of sound, [1] [m/s]
298.15 K, x2 = 0 | 1107.16 | 1.48591 | 1634.4
298.15 K, x2 = 0.102 | 1128.93 | 1.47414 | 1625.5
298.15 K, x2 = 0.1951 | 1143.99 | 1.46433 | 1618
298.15 K, x2 = 0.3046 | 1155.01 | 1.45472 | 1608.3
298.15 K, x2 = 0.3886 | 1163.44 | 1.4487 | 1601
298.15 K, x2 = 0.5262 | 1173.25 | 1.44033 | 1590.7
298.15 K, x2 = 0.6185 | 1179.38 | 1.43543 | 1584.4
298.15 K, x2 = 0.69 | 1183.57 | 1.43222 | 1579.5
298.15 K, x2 = 0.7844 | 1188.69 | 1.4283 | 1574.3
298.15 K, x2 = 0.8861 | 1193.47 | 1.42468 | 1569.2
303.15 K, x2 = 0 | 1103.07 | 1.48403 | 1618
303.15 K, x2 = 0.102 | 1124.98 | 1.47243 | 1610.2
303.15 K, x2 = 0.1951 | 1139 | 1.46228 | 1604.1
303.15 K, x2 = 0.3046 | 1151.24 | 1.45316 | 1594.5
303.15 K, x2 = 0.3886 | 1159.65 | 1.44722 | 1587.5
303.15 K, x2 = 0.5262 | 1169.51 | 1.43885 | 1578.1
303.15 K, x2 = 0.6185 | 1175.68 | 1.43414 | 1572.5
303.15 K, x2 = 0.69 | 1179.91 | 1.43084 | 1567.2
303.15 K, x2 = 0.7844 | 1185.05 | 1.42696 | 1562.2
303.15 K, x2 = 0.8861 | 1189.85 | 1.42338 | 1557.3
308.15 K, x2 = 0 | 1098.99 | 1.48218 | 1601.6
308.15 K, x2 = 0.102 | 1121.03 | 1.47067 | 1595.5
308.15 K, x2 = 0.1951 | 1135.12 | 1.461 | 1589.2
308.15 K, x2 = 0.3046 | 1147.43 | 1.45161 | 1580.2
308.15 K, x2 = 0.3886 | 1155.87 | 1.44571 | 1573.8
308.15 K, x2 = 0.5262 | 1165.8 | 1.43737 | 1565.4
308.15 K, x2 = 0.6185 | 1172.01 | 1.43271 | 1560.1
308.15 K, x2 = 0.69 | 1176.26 | 1.42943 | 1554.7
308.15 K, x2 = 0.7844 | 1181.42 | 1.4256 | 1550
308.15 K, x2 = 0.8861 | 1186.26 | 1.42205 | 1545.4
313.15 K, x2 = 0 | 1094.9 | 1.48033 | 1585.4
313.15 K, x2 = 0.102 | 1117.09 | 1.46895 | 1580.5
313.15 K, x2 = 0.1951 | 1131.25 | 1.45929 | 1575
313.15 K, x2 = 0.3046 | 1143.62 | 1.44998 | 1566.5
313.15 K, x2 = 0.3886 | 1152.11 | 1.44418 | 1560.7
313.15 K, x2 = 0.5262 | 1162.12 | 1.43589 | 1552.7
313.15 K, x2 = 0.6185 | 1168.35 | 1.43125 | 1547.9
313.15 K, x2 = 0.69 | 1172.63 | 1.42805 | 1542.5
313.15 K, x2 = 0.7844 | 1177.81 | 1.4242 | 1537.9
313.15 K, x2 = 0.8861 | 1182.68 | 1.42069 | 1533.5
318.15 K, x2 = 0 | 1090.82 | 1.47841 | 1570.4
318.15 K, x2 = 0.102 | 1113.15 | 1.46715 | 1566
318.15 K, x2 = 0.1951 | 1127.38 | 1.45813 | 1560.9
318.15 K, x2 = 0.3046 | 1139.83 | 1.44832 | 1553.8
318.15 K, x2 = 0.3886 | 1148.36 | 1.44261 | 1547.8
318.15 K, x2 = 0.5262 | 1158.47 | 1.43436 | 1541.2
318.15 K, x2 = 0.6185 | 1164.72 | 1.42972 | 1536.4
318.15 K, x2 = 0.69 | 1169.02 | 1.42665 | 1530.7
318.15 K, x2 = 0.7844 | 1174.23 | 1.42286 | 1526.2
318.15 K, x2 = 0.8861 | 1179.12 | 1.41928 | 1521.9
323.15 K, x2 = 0 | 1086.75 | 1.47649 | 1553.5
323.15 K, x2 = 0.102 | 1109.21 | 1.46522 | 1550
323.15 K, x2 = 0.1951 | 1123.52 | 1.45533 | 1545.8
323.15 K, x2 = 0.3046 | 1136.08 | 1.44663 | 1539.4
323.15 K, x2 = 0.3886 | 1144.62 | 1.44099 | 1534.3
323.15 K, x2 = 0.5262 | 1154.82 | 1.43282 | 1528
323.15 K, x2 = 0.6185 | 1161.11 | 1.42817 | 1524
323.15 K, x2 = 0.69 | 1165.45 | 1.42522 | 1519.2
323.15 K, x2 = 0.7844 | 1170.66 | 1.42148 | 1514.2
323.15 K, x2 = 0.8861 | 1175.58 | 1.41788 | 1510.2
